This passage reports IC50 results from BindingDB's records for doi:10.1021/jm9707232 (Sapienza University of Rome, 1998).

The assay addresses Integrase (Human immunodeficiency virus 1, UniProt Q7ZJM1). Put plainly: Compound concentration required to reduce HIV-1 Integrase 3'-processing activity by 50%.

Integrase, sequence (Q7ZJM1 whole entry): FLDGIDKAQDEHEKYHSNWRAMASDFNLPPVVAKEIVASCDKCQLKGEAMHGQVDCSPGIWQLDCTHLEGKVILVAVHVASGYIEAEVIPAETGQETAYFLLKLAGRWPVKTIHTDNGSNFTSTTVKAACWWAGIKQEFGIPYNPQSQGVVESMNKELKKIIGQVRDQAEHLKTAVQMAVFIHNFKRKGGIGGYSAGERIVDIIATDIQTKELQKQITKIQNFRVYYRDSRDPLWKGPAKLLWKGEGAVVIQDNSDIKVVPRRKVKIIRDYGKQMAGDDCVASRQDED

In turn, `O=C(C=Cc1ccccc1)CC(=O)C=Cc1ccccc1` [5-Hydroxy-1,7-diphenylhepta-1,4,6-trien-3-one] gave an IC50 of more than 100 µM. `COc1ccc(C=CC(=O)CC(=O)C=Cc2ccc(OC)c(OC)c2)cc1OC` [(1E,4Z,6E)-1,7-bis(3,4-dimethoxyphenyl)-5-hydroxyhepta-1,4,6-trien-3-one] yielded an IC50 of more than 100 µM.
